The subject of data set [1] is RAW264.7. Briefly: Cytotoxicity against LPS-induced mouse RAW264.7 cells assessed as reduction in cell viability at 30 uM measured after 24 hrs by XTT assay. It is filed as toxicity, cell-based. The conditions noted are these: raw264.7, 24 h.
Data set [2] has as its system HL-60. Briefly: Cytotoxicity against human HL-60 cells at 30 uM. In kind it is functional, cell-based.
The test system of data set [3] is RAW264.7. The data set can be described thus: Anti-inflammatory activity in LPS-induced mouse RAW264.7 cells assessed as suppression of IL-6 level pretreated for 1 hr followed by LPS addition and measured after 24 hrs by ELISA method. It is filed as functional, cell-based. On the technique in general: In an ELISA, binding on a coated surface is turned into a signal by an enzyme label.

For data set [4], the system named is RAW264.7. The data set can be described thus: Anti-inflammatory activity in LPS-induced mouse RAW264.7 cells assessed as suppression of NO production pretreated for 1 hr followed by LPS addition and measured after 24 hrs by Griess reagent based assay. In kind it is functional, cell-based. In general terms: The Griess reaction detects nitrite, a stable product of nitric oxide.

The test system of data set [5] is WSUDLCL2. Briefly: Cytotoxicity against human WSUDLCL2 cells at 30 uM. It is filed as functional, cell-based.
For data set [6], the system named is K562. The data set can be described thus: Cytotoxicity against human K562 cells at 30 uM. In kind it is functional, cell-based.
Data set [7] concerns U-266. Briefly: Cytotoxicity against human U-266 cells at 30 uM. In kind it is functional, cell-based.
Data set [8] relates to RAW264.7. Briefly: Anti-inflammatory activity against mouse RAW264.7 cells assessed as inhibition of LPS-induced IL-6 mRNA level pretreated for 1 hr followed by induced with LPS measured after 6 hrs by quantitative RT-PCR analysis. It is filed as functional, cell-based. The conditions noted are these: dose 1-30 µM, time 7.0 hrs.
The test system of data set [9] is RPMI 8402. Briefly: Cytotoxicity against human RPMI 8402 cells at 30 uM. It is filed as functional, cell-based.
The test system of data set [10] is MDA-MB-231. Briefly: Cytotoxicity against human MDA-MB-231 cells at 30 uM. In kind it is functional, cell-based.
Data set [11] concerns RAW264.7. The data set can be described thus: Anti-inflammatory activity against mouse RAW264.7 cells assessed as inhibition of LPS-induced iNOS mRNA level pretreated for 1 hr followed by induced with LPS measured after 6 hrs by quantitative RT-PCR analysis. In kind it is functional, cell-based. The conditions noted are these: dose 1-30 µM, time 7.0 hrs.
Data set [12] has as its system ACHN. The data set can be described thus: Cytotoxicity against human ACHN cells at 30 uM. It is filed as functional, cell-based.
Data set [13] deals with Raji. Briefly: Cytotoxicity against human Raji cells at 30 uM. It is filed as functional, cell-based.
The subject of data set [14] is PC-3. Briefly: Cytotoxicity against human PC-3 cells at 30 uM. In kind it is functional, cell-based.
The subject of data set [15] is RAW264.7. The data set can be described thus: Anti-inflammatory activity in LPS-induced mouse RAW264.7 cells assessed as suppression of NO production at 30 uM pretreated for 1 hr followed by LPS addition and measured after 24 hrs by Griess reagent based assay. It is filed as functional, cell-based. The conditions noted are these: time 25.0 hrs.
In data set [16] the test system is NALM-6. Briefly: Cytotoxicity against human NALM-6 cells at 30 uM. In kind it is functional, cell-based.
The test system of data set [17] is HCT-15. Briefly: Cytotoxicity against human HCT-15 cells at 30 uM. It is filed as functional, cell-based.
Data set [18] concerns RPMI-1788. Briefly: Cytotoxicity against human RPMI-1788 cells at 30 uM. In kind it is functional, cell-based.
For data set [19], the system named is NCI-H23. Briefly: Cytotoxicity against human NCI-H23 cells at 30 uM. It is filed as functional, cell-based.
Data set [20] has as its system NUGC-3. Briefly: Cytotoxicity against human NUGC-3 cells at 30 uM. It is filed as functional, cell-based.

Active and inactive are the calls of the source. The rule behind the calls is not given here.

`Cc1cc(C)n(CCc2ccc(O)cc2)c1C=O`: the Activity entry in data set [1] is on record as “Non-toxic”.

For the compound `CO[C@@]1(C)C=C(C)C(=O)N1CCc1ccc(O)cc1`, the Activity entry in [1] is reported as “Non-toxic”.

In the case of `CO[C@@]1(C)C=C(C)C(=O)N1CC(=O)c1ccccc1`, the Activity result in data set [1] is “Non-toxic”.

With `CC1=C[C@@](C)(O)N(CCc2ccc(O)cc2)C1=O`, in data set [1], the Activity entry is on record as “Non-toxic”.

As for `C=C1C=C(C)C(=O)N1CCc1ccc(O)cc1`, the outcome in data set [2], in [5], in data set [6], in data set [7], in [9] and in data set [10] was inactive. Also, the outcome in [12], in [13], in data set [14], in data set [16], in data set [17] and in data set [18] was inactive. Moreover, the result in [19] and in data set [20] was inactive. For the same compound, the IC50 in data set [3] is 10.9 µM; in [4], 29.5 µM. The Activity result in data set [3] (time 25.0 hrs) is “Dose-dependent-effect”; in data set [4] (time 25.0 hrs), “Dose-dependent-effect”; in data set [1], “Non-toxic”. In addition, the inhibition entry in [8] and in data set [11] was “Dose-dependent-effect” throughout. The result in data set [15] was Active.

Regarding `CC(=O)N(O)CCCn1c(C)cc(C)c1C(=O)[C@@H](O)CO`, the Activity entry in data set [1] was “Non-toxic”.

For orientation: IC50 means the concentration needed to halve the response being measured.

Source of the values: ChEMBL document CHEMBL6103674, “Xiapyrroles A-F: N-Alkylpyrrole Alkaloids from the Marine-Derived Actinomycete Streptomyces xiamenensis 1310KO-148” (J Nat Prod, 2025).
